We go through three molecules from patent publication US8399206B2, “Methods for diagnosis, prognosis and methods of treatment” (Nodality, Inc., priority 2008, dated 2013).

What all share (assay type): cell-based, human
For assay [1], the system named is AML blasts. In words: SCNP / phospho-flow modulated signaling assay, AML study No. 1 (PBMC at diagnosis, CR vs NR). The source says: The present illustrative example represents how to analyze cells in one embodiment of the present invention. There are several steps in the process, such as the stimulation step, the staining step and the flow cytometry step. The stimulation step of the phospho-flow procedure can start with vials of frozen cells and end with cells fixed and permeabilized in methanol. Then the cells can be stained with an antibody directed to a particular protein of interest and then analyzed using a flow cytometer.
Frozen cells are thawed in a 37° C. water bath and gently resuspended in the vial and transferred to the 15 mL conical tube. The 15 mL tube is centrifuged at 930 RPM (200×g) for 8 minutes at room temperature. The supernatant is aspirated and the pellet is gently resuspended in 1 mL media A. The cell suspension is filtered through a 70 um cell strainer into a new 15 mL tube. The cell strainer is rinsed with 1 mL media A and another 12 ml of media A into the 15 mL tube. The cells are mixed into an even suspension. A 20 μL aliquot is immediately removed into a 96-well plate containing 180 μL PBS+4% FBS+CD45 Alexa 700+PI to determine cell count and viability post spin. After the determination, the 15 mL tubes are centrifuged at 930 RPM (200×g) for 8 minutes at room temperature. The supernatant is aspirated and the cell pellet is gently resuspended in 4 mL PBS+4 μL Amine Aqua and incubated for 15 min in a 37° C. incubator. 10 mL RPMI+1% FBS is added to the cell suspension and the tube is inverted to mix the cells. The 15 mL tubes are centrifuged at 930 RPM (200×g) for 8 minutes at room temperature. The cells are resuspended in Media A at the desired cell concentration (1.25×10^6/mL). For samples with low numbers of cells (<18.5×10^6), the cells are resuspended in up to 15 mL media. For samples with high numbers of cells (>18.5×10^6), the volume is raised to 10 mL with media A and the desired volume is transferred to a new 15 mL tube, and the cell concentration is adjusted to 1.25×10^6 cells/ml. 1.6 mL of the above cell suspension (concentration at 1.25×10^6 cells/ml) is transferred into wells of a multi-well plate. From this plate, 80 ul is dispensed into each well of a subsequent plate. The plates are covered with a lid (Nunc) and placed in a 37° C. incubator for 2 hours to rest.
A concentration for each stimulant that is five folds more (5×) than the final concentration is prepared using Media A as diluent. 5× stimuli are arrayed into wells of a standard 96 well v-bottom plate that correspond to the wells on the plate with cells to be stimulated.
Adding the stimulant: The cell plate(s) are taken out of the incubator and placed in a 37° C. water bath next to the pipette apparatus. The cell plate is taken from the water bath and gently swirled to resuspend any settled cells. With pipettor, the stimulant is dispensed into the cell plate and vortexed at “7” for 5 seconds. The deep well plate is put back into the water bath.
Adding Fixative: 200 μl of the fixative solution (final concentration at 1.6%) is dispensed into wells and then mixed on the titer plate shaker on high for 5 seconds. The plate is covered with foil sealer and incubated in a 37° C. water bath for 10 minutes. The plate is spun for 6 minutes at 2000 rpm at room temperature. The cells are aspirated using a 96 well plate aspirator (VP Scientific). The plate is vortexed to resuspend cell pellets in the residual volume. The pellet is ensured to be dispersed before the Methanol step (see cell permeabilization) or clumping will occur.
Cell Permeabilization: Permeability agent, for example methanol, is added slowly and while the plate is vortexing. To do this, the cell plate is placed on titer plate shaker and made sure it is secure. The plate is set to shake using the highest setting. A pipetter is used to add 0.6 mls of 100% methanol to the plate wells. The plate(s) are put on ice until this step has been completed for all plates.

In assay [2] the test system is AML BMMC leukemic blasts. The assay is described as follows: SCNP modulated signaling assay, AML study No. 2 (BMMC, CR vs NR, clinical sub-groups). To be noted: Study No. 2, all patients. On the procedure: Two independent sets of cryopreserved samples were analyzed sequentially. The first set consisted of 35 peripheral blood mononuclear cell (PBMC) samples derived from AML patients. The second set consisted of 134 cryopreserved bone marrow mononuclear cell (BMMC) samples derived from AML patients. These samples were the same samples used in the previous examples. Sample inclusion criteria required collection prior to initiation of induction chemotherapy, AML classification by the French-American-British (FAB) criteria as M0 through M7 (excluding M3) and availability of clinical annotations.
In the first study, induction chemotherapy consisted of at least one cycle of standard cytarabine-based induction therapy (i.e. daunorubicin 60 mg/m^2×3 days, cytarabine 100-200 mg/m^2 continuous infusion×7 days); responses were measured after one cycle of induction therapy. In the second study, cytarabine (200 mg/m^2 to 3 g/m^2) was used in combination with an anthracycline (daunorubicin or idarubicin) or an additional anti-metabolite (e.g. fludarabine or troxacitabine), and sometimes, an experimental agent (Table 16). […] Standard clinical and laboratory criteria were used for defining complete response (CR) in both studies. […] Classified as “CRp,” these samples were included in the CR group for all primary analysis. The univariate analyses were also repeated with the CRp patients classified into the NR sample group for sensitivity analysis.
Cyropreserved samples were thawed at […], washed and centrifuged in PBS, 10% FBS and 2 mM EDTA. The cells were re-suspended, filtered to remove debris and washed in RPMI cell culture media, 1% FBS, then stained with Live/Dead Fixable Aqua Viability Dye to distinguish non-viable cells. The cells were then re-suspended in RPMI, 1% FBS, aliquoted to 100,000 cells/condition and rested for 1-2 hours at 37° C. prior to SCNP assays. Each condition included two to five phenotypic markers for cell population gating (eg, CD45, CD33), up to three intracellular stains or up to three additional surface markers or control antibodies for an eight-color flow cytometry assay.
Functional assays were performed as previously described. Cells were incubated with modulators (Table 18), at 37° C. for 3-15 minutes, fixed with 1.6% paraformaldehyde (final concentration) for 10 minutes at 37° C., pelleted and permeabilized with 100% ice-cold methanol and stored at −80° C.
Data was acquired using FACS DIVA software on both LSR II and CANTO II Flow Cytometers (BD). For all analyses, dead cells and debris were excluded by forward scatter (FSC), side scatter (SSC), and Amine Aqua Viability Dye measurement. Leukemic cells were identified as cells that lacked the characteristics of mature lymphocytes (CD45^++, CD33^−) and that fit the CD45 and CD33 versus right-angle light-scatter characteristics consistent with myeloid leukemia cells.
The median fluorescence intensity (MFI) was computed for each node from the fluorescence intensity levels for the cells in the myeloid population. The MFI values were then used to compute a variety of metrics by comparing them to baseline or background values, including the unmodulated condition, cellular autofluorescence and antibody isotype controls. The following metrics were computed: • 1. Basal MFI (“Basal”)=log2(MFIUnmodulated Stained)−log2(MFIGated Unstained (Autofluoresence)), designed to measure the basal levels of a certain protein under unmodulated conditions. • 2.

Assay [3] has as its system pediatric AML leukemic blasts. In words: SCNP assay on pediatric AML bone marrow samples, POG trial 9421 (Example 11). As to conditions: relapse vs complete continuous remission (CCR).
Procedure: SCNP assays were performed on 77 bone marrow samples from pediatric AML patients enrolled in POG trial 9421 of which 67 were evaluable/had sufficient data for analysis and were enriched for non-responders (NR). 80 combinations of modulators and intra-cellular proteins (signaling nodes) were investigated including nodes involved in the phosphoinositide 3-kinase (PI3K), Janus Kinases (JAK), signal transducers and activators of transcription (STAT) and the DNA damage response and apoptosis pathways. Basal and modulated protein levels in leukemic blasts were measured using several metrics (e.g., fold change, total level of phosphorylation, and a rank based method Uu measuring the proportion of cells that shift from baseline), and nodes were examined in univariate and multivariate analyses for their ability to discriminate between AML responsive (CR, n=46) and non-responsive (NR, n=21) to anthracycline/cytarabine-based induction therapy. Furthermore, nodes were examined for their ability to identify patients likely to be in complete continuous remission (CCR, n=23) or relapse (CR-Rel, n=23) within 4 years.
The subject of assay [4] is AML myeloblasts (BMMC). In words: SCNP of paired diagnosis and relapse AML BMMC and independent diagnostic set (Example 5). As to conditions: paired diagnosis samples of Patients 1 and 2. The source says: All AML bone marrow mononuclear cells (BMMC) were derived from the bone marrow (BM) of AML patients treated at MD Anderson Cancer Center (MDACC) between September 1999 and September 2006. Clinical data were de-identified in compliance with Health Insurance Portability and Accountability Act regulations. Patient/sample inclusion criteria required a diagnosis of French-American-British (FAB) classification of M0 through M7 AML (excluding M3) AML, collection prior to therapy initiation and at least 50% viability upon sample thaw. For the identification of chemoresistant signaling profiles, two longitudinally paired BMMC samples at diagnosis (collection prior to the initiation of induction chemotherapy) and first relapse, were examined. An independent test set comprised of 47 BMMC samples collected at diagnosis from AML patients with a disease response of CR after high dose cytarabine based chemotherapy was used to assess the ability of the identified signaling profiles to predict disease relapse. Healthy, unstimulated BMMC (n=2) were purchased from a commercial source (All Cells) to serve as a control. All samples underwent fractionation over Ficoll-Hypaque prior to cryopreservation with 90% fetal bovine serum and 10% dimethyl sulfoxide and storage in liquid nitrogen.
The SCNP assay measured response to growth factors and cytokines involved in hematopoietic progenitor or myeloid biology (SCF, FLT3L, G-CSF, IL-27), drug transporter (ABCG2, MRP-1) and chemokine receptors (CXCR4) associated with adverse disease prognosis in AML, and the c-Kit growth factor receptor for SCF. The SCF and FLT3L-mediated PI3K/Akt and MAPK pathway is important for maintaining the hematopoietic stem cell pool; G-CSF-mediated Jak/STAT pathway activation is important for neutrophilic differentiation of hematopoietic progenitor cells; interleukin (IL)-27 mediated Jak/STAT pathway activation is important in regulating proliferation and differentiation of hematopoietic stem cells; CXCR4 expression is associated with disease relapse and decreased survival; and drug transporter expression levels (i.e. ABCG2 and MRP-1) are known to be associated with adverse prognosis in AML. All together, approximately 20 signaling nodes were evaluated in each sample.
SCNP assays were performed as described previously. Cryopreserved samples were thawed at 37° C. and washed once in warm PBS containing 10% FBS (HyClone, Waltham, Mass., USA) and 2 mM EDTA. […] The cells were re-suspended in RPMI containing 1% FBS, aliquoted to 100,000 cells/condition and rested for 1-2 hours at 37° C. […]

Where [5] appears, read: Study No. 1 sensitivity analysis, CR samples.
The mark [6] stands for this setting: Study No. 1 sensitivity analysis, NR samples incl. CRp.

Regarding `C/C=C(/C)C(=O)O[C@H]1C(C)=C2[C@H]([C@@H]1OC(=O)CCCCCCC)[C@@](C)(OC(C)=O)C[C@H](OC(=O)CCC)[C@@]1(O)[C@H]2OC(=O)[C@@]1(C)O` [Thapsigargin, reference compound], in assay [1] (setting [5]), the “Mean Value of CRs, p-CREB Total Phospho” value came out at 1.79; the “Mean Value of CRs, p-S6 Fold” value came to 0.03; the “Mean Value of CRs, p-S6 Total Phospho” value was determined as 0.31. In assay [1] (setting [6]), the “Mean Value of NRs, p-CREB Total Phospho” value turned out to be 2.77; the “Mean Value of NRs, p-S6 Fold” value came to 0.31; the “Mean Value of NRs, p-S6 Total Phospho” value is on record as 0.67. The “Mean Value of CRs, p-Erk Fold” value in assay [2] (CR samples) was 1.22. The “Mean Value of NRs, p-Erk Fold” value in assay [2] (NR samples) worked out at 0.36. In assay [3], the “induction of p-Erk, p-CREB and p-S6” value is “less in CR-Rd than in CCR samples”.
SCF: stem cell factor: in assay [1] (setting [5]), the “Mean Value of CRs, p-Akt Fold” value was 0.09; the “Mean Value of CRs, p-CREB Total Phospho” value amounted to 1.32; the “Mean Value of CRs, p-Erk Fold” value was −0.06; the “Mean Value of CRs, p-Plcγ2 Total Phospho” value came to 1.80. Moreover, in assay [1] (setting [6]), the “Mean Value of NRs, p-Akt Fold” value came out at 0.56; the “Mean Value of NRs, p-CREB Total Phospho” value came to 1.92; the “Mean Value of NRs, p-Erk Fold” value is given as 0.11; the “Mean Value of NRs, p-Plcγ2 Total Phospho” value is listed as 2.79. For the same molecule, in assay [4], the “responsive cells in diagnostic AML bone marrow samples” value is reported as ~1%.

B1: G-CSF: granulocyte colony-stimulating factor (protein, UniProt P09919 31-207, looked up)
Granulocyte …: TPLGPASSLPQSFLLKCLEQVRKIQGDGAALQEKLVSECATYKLCHPEELVLLGHSLGIPWAPLSSCPSQALQLAGCLSQLHSGLFLYQGLLQALEGISPELGPTLDTLQLDVADFATTIWQQMEELGMAPALQPTQGAMPAFASAFQRRAGGVLVASHLQSFLEVSYRVLRHLAQP
B1: the “increase in p-Akt and p-S6 levels” value in assay [1] (Staurosporine Resistant category vs other apoptosis categories) is “greatest increase in p-Akt and p-S6 levels”. Also, in assay [1] (setting [5]), the “Mean Value of CRs, p-Stat3 Fold” value was determined as 0.60; the “Mean Value of CRs, p-Stat3 Total Phospho” value amounted to 1.40; the “Mean Value of CRs, p-Stat5 Fold” value is listed as 0.33. Besides, in assay [1] (setting [6]), the “Mean Value of NRs, p-Stat3 Total Phospho” value is 2.74 and the “Mean Value of NRs, p-Stat5 Fold” value turned out to be 1.15. Also, the “Mean Value of NRs, p-Stat3 Fold” value in assay [1] (Study No. 1 sensitivity analysis, NR samples incl. CRp, negative = down regulation) is 1.52. Besides, the “Jak/Stat response (G-CSF: p-Stat3, p-Stat5; GM-CSF: p-Stat5)” value in assay [1] (all samples of the Staurosporine Resistant apoptosis category) is “Robust Jak/Stat responses”. The “responsive cells in diagnostic AML bone marrow samples” value in assay [4] is on record as ~1%.
